One series concerns patients with dementia. The conditions noted are these: patients in the treatment of Alzheimer's disease; cited from earlier work.
The subject of series [1] is ovariectomized, hypoestrogenic rats. The note with it: introduction into the lateral ventricle in the brain; cited from earlier work.
In series [2] the test system is male rats exposed to chronic stress (electrical current). The series can be described thus: Sexual activity of male rats in the model of chronic stress caused by electrical current exposure. It is filed as in vivo, rat. Here is the method: The most appropriate model (in terms of the ease of implementation) is the model of psychogenic sexual dysfunction caused by exposure to physical factors (electrical current) in rats.
The pre-experiment with the animals was performed similar to that described in Example 2.
The two groups of the animals similar in the sexual activity level were formed: control (administration of distilled water), pharmaceutical formulation (on ipidacrine basis at a dose of 1.7 mg/kg). The animals of the control and experimental groups were daily exposed to current with a voltage of 30V for 30 min once a minute with an impulse with duration of 1 sec. The drug was administered 30 minutes before the stress, the testing was performed 60 min after the stress.

Series [3] has as its system hypoactive male rats with spontaneously reduced sexual function. Put plainly: Sexual activity of initially hypoactive male rats with spontaneously reduced sexual function. The class given is in vivo, rat. The source says:
This model is associated with the clinical conditions of anorgasmia or delayed ejaculation in humans. According to the results of the five-fold testing of the intact animals, the groups of hypoactive male rats were formed. The criterion for selection was average number of ejaculations of less than 0.5 according to the results of the five-fold testing.
To assess the effect of ipidacrine on sexual function of rats with the reduced sexual activity, the groups of the animals with initially low manifestations of copulatory and ejaculatory components of behavior were formed. This model reflects the clinical conditions of anorgasmia and delayed ejaculation. The effect of the drug on the integral indicator of the sexual function (number of ejaculations) at a dose of 0.85 to 5.1 mg/kg when administered daily is shown in FIG. 3

In a further series the test system is hemigonadectomized rats. Put plainly: Sexual activity of hemigonadectomized rats (hypogonadal state model). It is filed as in vivo, rat. The source says: Evaluation of the effects of ipidacrine pharmaceutical formulation in rats with the reduced sexual activity caused by hemigonadectomy. The hemigonadectomy is similar to the pathological processes observed in the clinical picture and associated with the decrease in hormone production by the sex glands. The model of hypogonadal state in rats induced by the hemigonadectomy corresponds to the pathological processes observed in the clinical picture and associated with the decreased hormone production of the sex glands.
The study of the ipidacrine pharmacological activity was conducted in albino male rats. The following six groups of animals were formed: 1—intact, 2—treated with sildenafil, 3—galantamine, 4—ipidacrine, 5—gonadectomized, 6—control.
30 days before the start of the main study, the experiment was performed (3 times a week for 2 weeks), namely introduction of a receptive female to the male rat. The number of ejaculations was recorded. Those animals whose level of sexual activity was characterized by stable performance of 1-2 ejaculations during the period of the test were selected.
The selected male rats underwent the hemigonadectomy (at the right) performed under ether anesthesia. Then, during 7 and 14 days prior to the course administration of the drugs, daily testing of sexual activity of the hemigonadectomized animals was carried out. The latency period and the number of mounts, intromissions and ejaculations in different groups of the animals were considered.

Consider three compounds from patent US20150368203A1, “PHARMACEUTICAL FORMULATIONS CONTAINING IPIDACRINE AND THEIR USE FOR THE TREATMENT OF DISORDERS OF POTENCY AND DISORDERS OF OTHER FORMS OF SEXUAL ACTIVITY” (Limited Liability Company "KONSORTSIUM-PIK", priority 2012, published 2015).

In the case of `COc1cc2c(cc1OC)C(=O)C(CC1CCN(Cc3ccccc3)CC1)C2` (stereo not shown) [donepezil], in the series with patients with dementia, the “sexual behavior (side effect)” value is listed as “increase in the sexual behavior”.

`CNC(=O)Oc1ccc2c(c1)[C@]1(C)CCN(C)[C@@H]1N2C` [eserine]: the lordosis entry in series [1] is listed as “increases the lordosis”.

For `Nc1c2c(nc3c1CCC3)CCCC2` [ipidacrine, Ipidacrine], in series [2] (1.7 mg/kg once a day prior to the stress), the “formation of sexual dysfunction” value is given as “slower formation of sexual dysfunction”. Also, the “parameters of activity in the initial period” value in series [2] (1.7 mg/kg, 1 to 3 days, versus group nonsusceptible to stress) is listed as “comparable to the parameters in the group nonsusceptible to the stress”. Moreover, the frequency of ejaculations in series [2] (1.7 mg/kg, 3rd to 10th day of the experiment) is reported as 60-100%. Also, in series [2] (1.7 mg/kg, 3rd to 10th day, versus stressed animals without treatment), the “rate of renewal of activity after the first ejaculation” value is recorded as “higher rate of renewal of activity after the first ejaculation”. Also, the “latency period of intromissions (7th day) and of intromissions and mounts (10th day) versus group without treatment” value in series [2] (1.7 mg/kg, 7th and 10th day) is listed as “Significant differences from the group without treatment”. The number of ejaculations in series [2] (1.7 mg/kg, 10th and 14th day of the 14 day exposure to stress) is reported as 0.4-0.6. Also, the “latency period of mounts and intromissions compared to animals nonsusceptible to stress” value in series [2] (1.7 mg/kg, starting from the 5th day) was “significant increase in the latency period of mounts and intromissions”. Further, in series [3] (0.85 mg/kg daily), the “average number of ejaculations in the group” value is 0.6-0.8 and the “rate of occurrence of ejaculations” value is on record as 80%. The “latency period of mounts and intromissions” value in series [3] (0.85 mg/kg daily, 7th to 14th day, versus background, trend level, similar changes in control) is “reduction of the latency period of mounts and intromissions”. Moreover, the “time to renewal of sexual activity after the first ejaculation (on the average)” value in series [3] (0.85 mg/kg daily, some animals) is 4 to 6 min. In series [3] (0.85 mg/kg daily, starting with the 2nd week), the sexual activity result is recorded as “increase in the sexual activity”. Besides, the “number of animals able to ejaculate” value in series [3] (1.7 mg/kg) is recorded as “up to 80%”. Also, the “effect on the sexual function” value in series [3] (1.7 mg/kg, 14 days) was “activating effect on the sexual function throughout the whole observation period”. Moreover, in series [3] (1.7 mg/kg, after the first administration), the “reduction in the latency time of mounts and intromissions” value is 2 to 4 fold. In addition, the ejaculatory component entry in series [3] (1.7 mg/kg, throughout the course of administration) is listed as “increase of the ejaculatory component in comparison with the control”. Also, in series [3] (5.1 mg/kg), the “efficacy in spontaneous sexual hypoactivity” value is recorded as “effective only when administered for 5 days”. In addition, the “manifestation of the sexual activity on subsequent administration” value in series [3] (5.1 mg/kg, after the first 5 days) is “negative effect on the manifestation of the sexual activity”. The “sexual activity (central motivational and ejaculatory components)” value in series [3] (5.1 mg/kg, first 5 days) is on record as “increased the sexual activity in the animals during the first 5 days of observation”. The “values of indicators of sexual activity” value in series [3] (5.1 mg/kg, in 10, 14 days of the experiment) is “comparable to the control”. The “latency period of mounts” value in series [3] (5.1 mg/kg, in 3 days of observation, reduced from 33.0±5.35, p<0.05) came to 9.3 ± 1.93 s. Also, the “latency period of intromissions” value in series [3] (5.1 mg/kg, in 3 days of observation, reduced from 59.8 ±11.34, p<0.05) stood at 10.5 ±1.76. The “level of the sexual activity (fluctuations due to external stressor effects)” value with hemigonadectomized rats (1.7 mg/kg once daily for 7 days, hemigonadectomized rats) is on record as “eliminates fluctuations in the level of the sexual activity”. Besides, in the series on hemigonadectomized rats (5.1 mg/kg, 2 times a day for 14 days), the “time of maximum manifestation of the increase in sexual activity” value lay within 3 to 5 days. Further, the “time of maximum manifestation of the increase in sexual activity” value with hemigonadectomized rats (0.85 to 1.7 mg/kg, 2 times a day for 14 days) was in the range of 11 to 14 days. Further, the “sexual activity of the animals” value with hemigonadectomized rats (0.85 to 5.1 mg/kg, 2 times a day for 14 days, hemigonadectomized rats) is “dose-dependent increase in the sexual activity”.
